Data set [1] relates to rats. The data set is described as follows: Nausea/malaise (illness-like behaviors) studies in rats. In kind it is in vivo, rat. The following applies: over the course of 24 hours. How it is done: (§1) Five potential ligands (GFANT01-GFANT05, SEQ. ID NOs: 1-5, wherein the K* in each peptide is Lysine(N3)) were synthesized. The effects of each of the novel ligands were tested for their ability to alter nausea in rats over the course of 24 hours. […] Animals were given either MIC-1 (30 pmol), the endogenous ligand of GFRAL that suppresses appetites, GFANT05 (300 pmol), or a combination of both and their food intake was monitored for up to 24 hrs (FIG. 5A). […] In addition, kaolin intake, a reliable measure of nausea in rats, was reduced in animals receiving GFANT05 compared to vehicle alone and that of a known nausea-inducing compound (MIC-1) (FIG. 5B). […] Analysis of emetic episodes were measured by an observer blinded to treatment groups.

Data set [2] relates to rats. Description: food intake study. The data set is classed as in vivo, rat. Here is the method: (§2) FIG. 5A is a graph of a food intake study performed to evaluate the efficacy of unconjugated GFANT05 peptide (TK*[…]; SEQ ID NO: 5, wherein K* is K azido) to reduce nausea.
as §1

Data set [3] concerns rats. The data set is described as follows: kaolin intake study. In kind it is in vivo, rat. The following applies: compared to vehicle alone and MIC-1. How it is done: as §2, §1
Data set [4] deals with GFRAL receptor. Description: co-localization with the GFRAL receptor in the brainstem (image). An excerpt: This technology provides a new route to treat cachexia and chemotherapy induced nausea/vomiting by uniquely blocking the GDF15-GFRAL signaling in the brainstem.
In data set [5] the target is T1, recombinant human GFRα-like His-tag receptor (Homo sapiens, UniProt Q6UXV0).
T1 construct: purchased R&D 9647-GR-050
T1 sequence (Q6UXV0 19-394): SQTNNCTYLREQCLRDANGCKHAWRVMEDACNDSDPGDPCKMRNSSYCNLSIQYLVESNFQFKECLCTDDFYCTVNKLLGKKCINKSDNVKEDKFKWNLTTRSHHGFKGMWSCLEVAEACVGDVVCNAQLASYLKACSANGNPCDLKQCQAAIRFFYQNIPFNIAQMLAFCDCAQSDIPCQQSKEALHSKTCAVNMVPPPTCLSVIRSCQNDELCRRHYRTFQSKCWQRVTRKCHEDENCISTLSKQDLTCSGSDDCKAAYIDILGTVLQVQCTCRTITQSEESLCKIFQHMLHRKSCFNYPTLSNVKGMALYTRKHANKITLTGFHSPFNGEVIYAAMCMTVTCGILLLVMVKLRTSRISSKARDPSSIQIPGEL
Description: ELISA binding assay of GDF15 to GFRAL receptor. The following applies: GDF15 run at 100 ng/mL to 0.005 ng/mL; receptor 0.1 μg/mL on nickel coated plate. How it is done: To validate binding of the synthesized peptides to the GFRAL receptor, an ELISA assay was developed to determine the binding affinity of the peptides for their receptor. The primary antibody (Abcam ab206414) was diluted to 1 μg/mL. The secondary antibody was diluted by placing 5 μL into 10 mL assay buffer. GDF15 was run at concentrations of 100 ng/mL to 0.005 ng/mL. The recombinant human GFRα-like His-tag receptor (R&D 9647-GR-050) was added to the Pierce™ nickel coated plate (ThermoFisher Scientific 15442) at 0.1 μg/mL in a total volume of 100 μL.
In general terms: ELISA stands for enzyme-linked immunosorbent assay.

Data set [6] concerns male rats. Description: Ejaculation studies in rats. The following applies: video recorded for 3 h. In kind it is in vivo, rat. How it is done: Rats were video recorded for 3 h and the number of spontaneous ejaculations were analyzed by an observer blinded to treatment groups. Without wishing to be bound by theory, GFANT01 may be an agonist of the GFRAL receptor.
In data set [7] the target is T2, human GFRAL receptor (Homo sapiens, UniProt Q6UXV0).
T2 sequence (Q6UXV0 19-394): T1 sequence (Q6UXV0 19-394)
Description: Cy5-conjugate binding to human GFRAL receptor in vitro, tracked with anti-Cy5 antibody. The following applies: Cy5-conjugate exposed to human GFRAL receptor in vitro. An excerpt:
A Cy5-conjugate of GFRAL receptor antagonist was synthesized and exposed to the human GFRAL receptor in vitro and tracked for binding using an anti-Cy5 antibody.

A short description of data set [8]: in vitro PK study in rat microsomes. The data set is classed as in vitro ADME. How it is done: FIG. 8 is a graph illustrating the results from in vitro PK study of GFRAL receptor antagonist in rat microsomes. […] Reaction velocity (V) was calculated to be 511 uL/1 mg. Intrinsic clearance (Cl-int) was determined to be 339 uL/min/mg protein.

For orientation: KD means a measure of binding affinity in units of concentration. The half-life is how long it takes for the measured level to halve.

Non-standard residues stand in square brackets, D forms with d. Residues, ends and D or L forms follow the SMILES beside them. No end group written: not given here. Lys(N3) = [N-]=[N+]=NCCCC[C@H](N)C(=O)O

As to “GFANT05: engineered peptide TK*EELIHAHADPMVLIQKTDTGVSLQTYD; GFRAL receptor antagonist (T[Lys(N3)]EELIHAHADPMVLIQKTDTGVSLQTYD)”, in data set [1], the “effect on nausea/illness-like behaviors” value is given as “significant effect”. Moreover, in data set [2] (GFANT05 (300 pmol) added to MIC-1 (30 pmol), compared with MIC-1), the overall food consumption result is “did not increase overall food consumption over MIC-1”. Moreover, the food intake entry in data set [2] (GFANT05 (300 pmol) alone, 24 hrs post-administration, vs untreated control) is “ate the same amount of food as untreated control animals”. The kaolin intake result in data set [3] was “reduced”. Also, the “co-localization with the GFRAL receptor” value in data set [4] is listed as “co-localizing with the GFRAL receptor in the brainstem”.

Consider “growth and differentiation factor 15 [GDF15]”, for which the dissociation constant KD in data set [5] was 1.03 ng/mL. In addition, the spontaneous ejaculation result in data set [6] is “the same effect”.

Turning to “Cy5-conjugate of GFRAL receptor antagonist: Cy5-conjugate of GFRAL receptor antagonist, synthesized for tracking binding with an anti-Cy5 antibody (T[Lys(N3)]EELIHAHADPMVLIQKTDTGVSLQTYD; also: Cy5 conjugate, site not given here)”, the “binding to the GFRAL receptor” value in data set [7] is reported as “confirming GFRAL receptor antagonist binding to the GFRAL receptor”.

In the case of “GFANT01: engineered peptide EDDVSFQK*LDDNVRYHTLRK; may be an agonist of the GFRAL receptor (EDDVSFQ[Lys(N3)]LDDNVRYHTLRK; not fully specified; printed as EDDVSFQK*LDDNVRYHTLRK)”, the spontaneous ejaculation entry in data set [6] was “result in spontaneous ejaculation”.

`CC[C@H](C)[C@H](NC(=O)[C@H](CC(C)C)NC(=O)[C@H](CCC(=O)O)NC(=O)[C@H](CCC(=O)O)NC(=O)[C@H](CCCCN=[N+]=[N-])NC(=O)[C@@H](N)[C@@H](C)O)C(=O)N[C@@H](Cc1c[nH]cn1)C(=O)N[C@@H](C)C(=O)N[C@@H](Cc1c[nH]cn1)C(=O)N[C@@H](C)C(=O)N[C@@H](CC(=O)O)C(=O)N1CCC[C@H]1C(=O)N[C@@H](CCSC)C(=O)N[C@H](C(=O)N[C@@H](CC(C)C)C(=O)N[C@H](C(=O)N[C@@H](CCC(N)=O)C(=O)N[C@@H](CCCCN)C(=O)N[C@H](C(=O)N[C@@H](CC(=O)O)C(=O)N[C@H](C(=O)NCC(=O)N[C@H](C(=O)N[C@@H](CO)C(=O)N[C@@H](CC(C)C)C(=O)N[C@@H](CCC(N)=O)C(=O)N[C@H](C(=O)N[C@@H](Cc1ccc(O)cc1)C(=O)N[C@@H](CC(=O)O)C(=O)O)[C@@H](C)O)C(C)C)[C@@H](C)O)[C@@H](C)O)[C@@H](C)CC)C(C)C` [GFRAL receptor antagonist] (H-T[Lys(N3)]EELIHAHADPMVLIQKTDTGVSLQTYD-OH; N-terminus and C-terminus assumed): in data set [8], the “Reaction velocity (V)” value is listed as 511 uL/1 mg and the half-life is 1.74 h. For the same compound, the microsomal CLint in data set [8] (read-out: Intrinsic clearance (Cl-int)) amounted to 339 µL/min/mg.

These data come from US12516092B2, “Peptide ligands of the GDNF family receptor A-like (GFRAL) receptor” (THE TRUSTEES OF THE UNIVERSITY OF PENNSYLVANIA, priority 2019, dated 2026).
